≈ marks a conversion by molar mass, not a printed value. Where “and” joins values, the source holds several entries; their conditions need not be identical. Identical values can stand only once.
Experiments:
A. baumannii ATCC19606 = assay: microbe, parasite or virus in culture; conditions: Acinetobacter baumannii, ATCC19606, 18 h
S. aureus CMCC26003 [1] = assay: microbe, parasite or virus in culture; conditions: Staphylococcus aureus, CMCC26003, 18 h
13 bacterial strains = assay: GM of MIC from tested bacterial strains (Table S2); assay type: cell-based; conditions: 13 strains of Table S2; read-out: GM: geometric mean of MIC from tested bacterial strains
Method: The 2 fold broth microdilution method was performed following previously established protocols.^[ [65], [66] ^] A total of 29 strains of human pathogenic microorganisms (11 Gram‐positive and 18 Gram‐negative) were included in the assay. Standard strains were maintained in our laboratory, and clinical isolates were obtained from the Fourth Affiliated Hospital of Soochow University. […] Gradient dilutions of the drugs (vancomycin, AMPs, and vancomycin‐AMP conjugates) were prepared in 96‐well plates, with 50 µL of each drug solution added per well. For the vancomycin and AMP mixture, 25 µL of vancomycin was combined with 25 µL of AMP at the corresponding monomer gradient concentration, resulting in a total volume of 50 µL. […] Following incubation, bacterial growth was assessed by measuring absorbance at 600 nm. The MIC was defined as the lowest concentration at which no bacterial growth was detected.

E. faecalis ATCC29212 = assay: microbe, parasite or virus in culture; conditions: Enterococcus faecalis, ATCC29212, 18 h
S. aureus 15192 = assay: microbe, parasite or virus in culture; conditions: Staphylococcus aureus, 15192, 18 h
[2] = tested on: E. coli ATCC25922 biofilms; conditions: 8 µM, 4 h, SYTO9/PI CLSM
MDR K. pneumoniae 2 = assay: microbe, parasite or virus in culture; conditions: Klebsiella pneumoniae, 18 h
C. perfringens ATCC13124 = assay: microbe, parasite or virus in culture; conditions: Clostridium perfringens, ATCC13124, 18 h
[3] = tested on: ompR, csgA, csgD, mlrA, and rcsB expression in E. coli ATCC25922; assay: qPCR analysis of biofilm‐related genes; conditions: 8 µM, 48 h static; qPCR ΔΔCt
S. aureus CMCC26003 [4] = assay: Antimicrobial blockade experiment using D‐Ala‐D‐Ala; assay type: cell-based; conditions: D‐Ala‐D‐Ala 0 to 128 µg mL^−1
Excerpt: In accordance with the experimental methods described in previous literature,^[ [42] ^]

[5] = tested on: S. aureus CMCC26003 persister cells; assay: Anti‐persister cells assay; conditions: 4 µM, 48 h, after 20× MIC ciprofloxacin for 8 h
E. coli ATCC25922 [6] = assay: microbe, parasite or virus in culture; conditions: Escherichia coli, ATCC25922, 18 h
VRSA 52 biofilms = conditions: 8 µM, 4 h, SYTO9/PI CLSM
S. typhimurium ATCC14028 = assay: microbe, parasite or virus in culture; conditions: Salmonella enterica, 18 h
VRSA 52 [7] = assay: Live/dead bacteria staining (PI/SYTO9, CLSM); conditions: 4 µM, 1 h
VRSA 11 = assay: microbe, parasite or virus in culture; conditions: Staphylococcus aureus, 18 h
E. coli ATCC25922 [8] = assay: Bacterial killing kinetics; conditions: 4 µM, sampled 0-180 min
[9] = tested on: VRSA 52 and E. coli ATCC25922; assay: ROS fluorescent probe assay (DCFH‐DA); assay type: cell-based; conditions: DCFH‐DA 10 µM, 1 h
Method: In accordance with the experimental methods described in previous literature,^[ [42] ^] […] The DCFH‐DA probe (Sigma‐Aldrich, US) was then added at a final concentration of 10 µM, and the mixture was incubated for 30 min at 37 °C, protected from light. After incubation, the samples were centrifuged to remove residual DCFH‐DA. The stained bacterial solution was transferred to a 96‐well black plate and mixed with varying concentrations of drugs (vancomycin, MSI‐78, and Vm‐MSI). Polymyxin B was used as a positive control, while PBS buffer served as a negative control. The plates were incubated at 37 °C for 1 h, protected from light. Finally, fluorescence was recorded using a Tecan Infinite M1000 PRO microplate reader (Tecan, Switzerland) with an excitation wavelength of 488 nm and an emission wavelength of 525 nm.

MRSA ATCC43300 = assay: microbe, parasite or virus in culture; conditions: Staphylococcus aureus, 18 h
MDR K. pneumoniae 4 = assay: microbe, parasite or virus in culture; conditions: Klebsiella pneumoniae, 18 h
E. coli ATCC25922 [10] = assay: Live/dead bacteria staining (PI/SYTO9, CLSM); assay type: cell-based; conditions: 4 µM, 1 h
S. aureus CMCC26003 [11] = assay: Bacterial killing kinetics; conditions: 4 µM, sampled 0-180 min
S. aureus 15772 = assay: microbe, parasite or virus in culture; conditions: Staphylococcus aureus, 15772, 18 h
MDR K. pneumoniae 3 = assay: microbe, parasite or virus in culture; conditions: Klebsiella pneumoniae, 18 h
VRSA 52 [12] = assay: microbe, parasite or virus in culture; conditions: Staphylococcus aureus, 18 h
MDR A. baumannii 1 = assay: microbe, parasite or virus in culture; conditions: Acinetobacter baumannii, 18 h

CN[C@H](CC(C)C)C(=O)N[C@H]1C(=O)N[C@@H](CC(N)=O)C(=O)N[C@H]2C(=O)N[C@H]3C(=O)N[C@H](C(=O)N[C@H](C(=O)O)c4cc(O)cc(O)c4-c4cc3ccc4O)[C@H](O)c3ccc(c(Cl)c3)Oc3cc2cc(c3O[C@@H]2O[C@H](CO)[C@@H](O)[C@H](O)[C@H]2O[C@H]2C[C@](C)(N)[C@H](O)[C@H](C)O2)Oc2ccc(cc2Cl)[C@H]1O [Vm, vancomycin]
MIC (A. baumannii ATCC19606): > 67.3 µM and > 100 µg/mL
MIC (S. aureus CMCC26003 [1]): 0.4 µM and 0.59 µg/mL
MIC (13 bacterial strains): 70 µg/mL (≈ 48.3 µM)
MIC (E. faecalis ATCC29212): > 67.3 µM and > 100 µg/mL
MIC (S. aureus 15192): 0.4 µM and 0.59 µg/mL
killing at the bottom of the biofilm [2]: 20%
killing at the surface of the biofilm [2]: 60%
MIC (MDR K. pneumoniae 2): > 67.3 µM
MIC (C. perfringens ATCC13124): 25.2 µM (≈ 36.6 µg/mL)
csgA expression relative to control [3]: 0.8
csgD expression relative to control [3]: 0.6
rcsB up‐regulation relative to control [3]: 1.5 fold
fold increase in the MIC value on exogenous addition of D‐Ala‐D‐Ala (S. aureus CMCC26003 [4]): > 25 fold
reduction in the number of persister cells [5]: one‐order reduction
MIC (E. coli ATCC25922 [6]): > 67.3 µM and > 100 µg/mL
killing in the surface layer of the biofilm (dead cells) (VRSA 52 biofilms): 25%
MIC (S. typhimurium ATCC14028): > 67.3 µM and > 100 µg/mL
bacterial mortality (VRSA 52 [7]): 2%
MIC (VRSA 11): > 67.3 µM and > 100 µg/mL
time to elimination of all bacteria (E. coli ATCC25922 [8]): no bactericidal activity
intracellular ROS production [9]: did not induce ROS production
MIC (MRSA ATCC43300): 3.16 µM and 4.69 µg/mL
MIC (MDR K. pneumoniae 4): > 67.3 µM
bacteria killed (mortality) (E. coli ATCC25922 [10]): 6%
time to complete eradication of all viable bacteria (S. aureus CMCC26003 [11]): > 180 min
MIC (S. aureus 15772): > 67.3 µM and > 100 µg/mL
MIC (MDR K. pneumoniae 3): > 67.3 µM
MIC (VRSA 52 [12]): > 67.3 µM and > 100 µg/mL
MIC (MDR A. baumannii 1): > 67.3 µM

— article PMC12931196, “Vm–MSI: a Vancomycin–Antimicrobial Peptide Conjugate Combating Resistant Bacteria and Broadening the Antimicrobial Spectrum” (Advanced Science, 2025)
